From PubChem BioAssay AID330 (DTP/NCI, 2004)
Where “and” joins values, the source holds several entries; their conditions need not be identical. Equal values may be shown once. Inconclusive results and toxic doses are left out.

Tested on: P388 leukemia ip, CD2F1 mice, survival T/C
Assay: NCI In Vivo Anticancer Drug Screen. Data for tumor model P388 Leukemia (intraperitoneal) in CD2F1 (CDF1) mice
Settings: endpoint: median survival time, higher = longer survival
Procedure, shortened: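 Mice carrying the transplanted tumor received test compound or vehicle. Survival was recorded in each group, and the value is the treated-group measurement divided by that of the vehicle-treated control group.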

[1] = dose: 12.5 mg/kg/injection, schedule: Q01DX009 (ip), vehicle: distilled water + Tween-80
[2] = dose: 25.0 mg/kg/injection, schedule: Q01DX009 (ip), vehicle: distilled water + Tween-80
[3] = dose: 50.0 mg/kg/injection, schedule: Q01DX009 (ip), vehicle: distilled water + Tween-80
[4] = dose: 100.0 mg/kg/injection, schedule: Q01DX009 (ip), vehicle: distilled water + Tween-80
[5] = dose: 200.0 mg/kg/injection, schedule: Q01DX009 (ip), vehicle: distilled water + Tween-80
[6] = dose: 50.0 mg/kg/injection, schedule: Q01DX009 (ip), vehicle: saline with Tween-80
[7] = dose: 100.0 mg/kg/injection, schedule: Q01DX009 (ip), vehicle: saline with Tween-80
[8] = dose: 200.0 mg/kg/injection, schedule: Q01DX009 (ip), vehicle: saline with Tween-80
[9] = dose: 6.25 mg/kg/injection, schedule: Q01DX009 (ip), vehicle: saline
[10] = dose: 50.0 mg/kg/injection, schedule: Q01DX005 (ip), vehicle: Klucel (hydroxypropylcellulose) (HPC)
[11] = dose: 100.0 mg/kg/injection, schedule: Q01DX005 (ip), vehicle: Klucel (hydroxypropylcellulose) (HPC)
[12] = dose: 60.0 mg/kg/injection, schedule: Q01DX005 (ip), vehicle: saline with Tween-80
[13] = dose: 120.0 mg/kg/injection, schedule: Q01DX005 (ip), vehicle: saline with Tween-80
[14] = dose: 50.0 mg/kg/injection, schedule: Q01DX005 (ip), vehicle: saline with Tween-80
[15] = dose: 100.0 mg/kg/injection, schedule: Q01DX001 (ip), vehicle: saline with Tween-80
[16] = dose: 200.0 mg/kg/injection, schedule: Q01DX001 (ip), vehicle: saline with Tween-80
[17] = dose: 400.0 mg/kg/injection, schedule: Q01DX001 (ip), vehicle: saline with Tween-80
[18] = dose: 50.0 mg/kg/injection, schedule: Q01DX009 (ip), vehicle: saline
[19] = dose: 100.0 mg/kg/injection, schedule: Q01DX009 (ip), vehicle: saline
[20] = dose: 200.0 mg/kg/injection, schedule: Q01DX009 (ip), vehicle: saline
[21] = dose: 50.0 mg/kg/injection, schedule: Q01DX009 (ip), vehicle: Klucel (hydroxypropylcellulose) (HPC)
[22] = dose: 100.0 mg/kg/injection, schedule: Q01DX009 (ip), vehicle: Klucel (hydroxypropylcellulose) (HPC)
[23] = dose: 200.0 mg/kg/injection, schedule: Q01DX009 (ip), vehicle: Klucel (hydroxypropylcellulose) (HPC)
[24] = dose: 100.0 mg/kg/injection, schedule: Q01DX005 (ip), vehicle: saline with Tween-80
[25] = dose: 200.0 mg/kg/injection, schedule: Q01DX005 (ip), vehicle: saline with Tween-80

## CC(Cl)CN=NNc1ccc(C#N)cc1 (stereo not given)
[1]
  T/C: 99 % of control
[2]
  T/C: 100 % of control
[3]
  T/C: 100 % of control
[4]
  T/C: 104 % of control
[5]
  T/C: 119 % of control

## CC(O)C(NC(=O)OC(C)(C)C)C(=O)ON1C(=O)CCC1=O (stereo not given)
[6]
  T/C: 101 % of control
[7]
  T/C: 101 % of control
[8]
  T/C: 101 % of control

## c1ccc(N2CCN(c3ccccc3)C2=C2N(c3ccccc3)CCN2c2ccccc2)cc1
dose: 3.0 mg/kg/injection, schedule: Q01DX005 (ip), vehicle: saline
  T/C: 105 % of control
dose: 6.0 mg/kg/injection, schedule: Q01DX005 (ip), vehicle: saline
  T/C: 107 % of control
dose: 12.0 mg/kg/injection, schedule: Q01DX005 (ip), vehicle: saline
  T/C: 105 % of control
dose: 12.5 mg/kg/injection, schedule: Q01DX005 (ip), vehicle: saline
  T/C: 114 % of control
dose: 25.0 mg/kg/injection, schedule: Q01DX005 (ip), vehicle: saline
  T/C: 99 % of control and 118 % of control

## CC(=O)NC(Cc1cccc(F)c1)C(=O)O (stereo not given)
dose: 1.56 mg/kg/injection, schedule: Q01DX009 (ip), vehicle: saline
  T/C: 111 % of control
dose: 3.12 mg/kg/injection, schedule: Q01DX009 (ip), vehicle: saline
  T/C: 106 % of control
[9]
  T/C: 107 % of control and 88 % of control

## CCOC(=O)CC1(O)C=C(C)C(=O)C(C)=C1
dose: 3.13 mg/kg/injection, schedule: Q01DX009 (ip), vehicle: distilled water + Tween-80
  T/C: 100 % of control
dose: 6.25 mg/kg/injection, schedule: Q01DX009 (ip), vehicle: distilled water + Tween-80
  T/C: 109 % of control
[1]
  T/C: 103 % of control
[2]
  T/C: 98 % of control
[3]
  T/C: 107 % of control
[4]
  T/C: 99 % of control
[5]
  T/C: 112 % of control
dose: 400.0 mg/kg/injection, schedule: Q01DX009 (ip), vehicle: distilled water + Tween-80
  T/C: 108 % of control

## CC/C(=C1/C=C(O)C(=O)C=C1OC)c1ccc(OC)cc1
dose: 2.5 mg/kg/injection, schedule: Q01DX009 (ip), vehicle: saline + alcohol
  T/C: 100 % of control
dose: 5.0 mg/kg/injection, schedule: Q01DX009 (ip), vehicle: saline + alcohol
  T/C: 101 % of control
dose: 10.0 mg/kg/injection, schedule: Q01DX009 (ip), vehicle: saline + alcohol
  T/C: 103 % of control

## C[C@H](N)C(=O)NCCNC(=O)[C@H](C)N
dose: 60.0 mg/kg/injection, schedule: Q01DX005 (ip), vehicle: saline
  T/C: 96 % of control
dose: 120.0 mg/kg/injection, schedule: Q01DX005 (ip), vehicle: saline
  T/C: 107 % of control
dose: 240.0 mg/kg/injection, schedule: Q01DX005 (ip), vehicle: saline
  T/C: 105 % of control

## NC(=O)NC(N)=S
dose: 25.0 mg/kg/injection, schedule: Q01DX009 (ip), vehicle: saline with Tween-80
  T/C: 100 % of control
[6]
  T/C: 105 % of control
[7]
  T/C: 99 % of control
[8]
  T/C: 98 % of control

## COc1ccccc1C(O)(c1ccccc1OC)C1(O)CCN(C)CC1
[10]
  T/C: 94 % of control
[11]
  T/C: 95 % of control

## CC(C)(C)/[N+]([O-])=C/C(c1ccccc1)C(/C=[N+](/[O-])C(C)(C)C)c1ccccc1 (stereo not given)
[12]
  T/C: 100 % of control
[13]
  T/C: 98 % of control
dose: 240.0 mg/kg/injection, schedule: Q01DX005 (ip), vehicle: saline with Tween-80
  T/C: 98 % of control

## Nc1ccc2c(SCCCCSc3c4ccccc4nc4cc(N)ccc34)c3ccccc3nc2c1
[12]
  T/C: 106 % of control
[13]
  T/C: 100 % of control

## c1ccc2c3c(c4c(c2c1)CN(C1CCCCC1)CO4)OCN(C1CCCCC1)C3
dose: 6.25 mg/kg/injection, schedule: Q01DX005 (ip), vehicle: saline with Tween-80
  T/C: 106 % of control
dose: 12.5 mg/kg/injection, schedule: Q01DX005 (ip), vehicle: saline with Tween-80
  T/C: 107 % of control and 112 % of control
[14]
  T/C: 116 % of control

## CC(C)(CO)NO
dose: 50.0 mg/kg/injection, schedule: Q01DX005 (ip), vehicle: saline
  T/C: 106 % of control
dose: 100.0 mg/kg/injection, schedule: Q01DX005 (ip), vehicle: saline
  T/C: 103 % of control
dose: 200.0 mg/kg/injection, schedule: Q01DX005 (ip), vehicle: saline
  T/C: 104 % of control

## O=C(NC(=S)c1ccc(Br)cc1)NS(=O)(=O)c1ccccc1
[15]
  T/C: 107 % of control
[16]
  T/C: 102 % of control
[17]
  T/C: 102 % of control

## CCC(/C=C/C1OC(=O)C=CC1C)=C\C(C)C/C=C/C(C)=C/C(C)C(=O)C(C)C(O)C(C)C/C(C)=C/C(=O)O (stereo not given)
dose: 12.5 micrograms/kg/injection, schedule: Q01DX005 (ip), vehicle: saline + alcohol
  T/C: 118 % of control
dose: 100.0 micrograms/kg/injection, schedule: Q01DX005 (ip), vehicle: saline + alcohol
  T/C: 92 % of control

## Cc1ccc(S(=O)(=O)OCC(O)C(O)COS(=O)(=O)c2ccc(C)cc2)cc1 (stereo not given)
[18]
  T/C: 97 % of control
[19]
  T/C: 102 % of control and 113 % of control
[20]
  T/C: 101 % of control and 95 % of control

## Clc1ccc(-c2noc(/C=C\c3ccccc3)n2)cc1
dose: 25.0 mg/kg/injection, schedule: Q01DX009 (ip), vehicle: Klucel (hydroxypropylcellulose) (HPC)
  T/C: 99 % of control and 86 % of control
[21]
  T/C: 98 % of control and 86 % of control
[22]
  T/C: 86 % of control and 97 % of control
[23]
  T/C: 95 % of control

## CN(C)c1ccc(/C=N/N=C2\C(=O)Nc3c(Cl)cc(Cl)cc32)cc1
[6]
  T/C: 95 % of control
[7]
  T/C: 97 % of control
[8]
  T/C: 95 % of control

## C1=CCN(c2nc(N3CCOCC3)nc(N3CCCc4ccccc43)n2)CC1
[18]
  T/C: 99 % of control
[19]
  T/C: 97 % of control
[20]
  T/C: 99 % of control

## CCOc1c(N2CCOCC2)c(=O)c1=O
[15]
  T/C: 100 % of control
[16]
  T/C: 100 % of control
[17]
  T/C: 90 % of control

## O=[N+]([O-])c1cccc(S(=O)(=O)N/N=C\c2cc([N+](=O)[O-])ccc2O)c1
[14]
  T/C: 107 % of control
[24]
  T/C: 100 % of control
[25]
  T/C: 97 % of control

## O=C1OCC2C3C=CC(O3)C12 (stereo not given)
dose: 100.0 mg/kg/injection, schedule: Q04DX003 (ip), vehicle: saline
  T/C: 100 % of control
dose: 200.0 mg/kg/injection, schedule: Q04DX003 (ip), vehicle: saline
  T/C: 102 % of control

## CS(=O)(=O)OC1C(COC(=O)c2ccccc2)OC2C1Oc1nc(=O)ccn12 (stereo not given)
[10]
  T/C: 98 % of control
[11]
  T/C: 99 % of control
dose: 200.0 mg/kg/injection, schedule: Q01DX005 (ip), vehicle: Klucel (hydroxypropylcellulose) (HPC)
  T/C: 101 % of control

## CC12CCC3C(C1)C(C(=O)O2)C(=O)OC3(C)C (stereo not given)
[21]
  T/C: 93 % of control
[22]
  T/C: 101 % of control
[23]
  T/C: 97 % of control

## COc1cc(N(CCCl)CCCl)ccc1C=Nc1ccccc1C(=O)O
dose: 12.37 mg/kg/injection, schedule: Q04DX003 (ip), vehicle: saline with Tween-80
  T/C: 195 % of control
dose: 18.75 mg/kg/injection, schedule: Q04DX003 (ip), vehicle: saline with Tween-80
  T/C: 181 % of control and 268 % of control

## O=c1c2ccccc2c(=O)c2c1ccc1[nH]c3c(ccc4c(=O)c5ccccc5c(=O)c43)[nH]c12
[14]
  T/C: 95 % of control
[24]
  T/C: 107 % of control
[25]
  T/C: 104 % of control

## COc1cc2c(cc1O)C(C)Cc1cc3c(cc1N(C)CC2)OCO3 (stereo not given)
dose: 100.0 mg/kg/injection, schedule: Q04DX002 (ip), vehicle: saline
  T/C: 106 % of control
dose: 200.0 mg/kg/injection, schedule: Q04DX002 (ip), vehicle: saline
  T/C: 113 % of control
dose: 400.0 mg/kg/injection, schedule: Q04DX002 (ip), vehicle: saline
  T/C: 103 % of control

## C=C1C(=O)OC2CC3(C)OC3CC(O)/C(C)=C/C(OC(=O)C(C)C)C12 (stereo not given)
[9]
  T/C: 110 % of control
dose: 12.5 mg/kg/injection, schedule: Q01DX009 (ip), vehicle: saline
  T/C: 112 % of control
dose: 25.0 mg/kg/injection, schedule: Q01DX009 (ip), vehicle: saline
  T/C: 121 % of control
